Conditions in all cases: FGFR binding data
The target of assay [1] is T1, FGFR2 (Homo sapiens, UniProt P21802).
T1 construct: made in house; host or cells: E. coli derived from BL21, infected with T7 phage
Description: Kinase binding assay (kinase-tagged T7 phage, affinity beads, qPCR readout), FGFR2. The method in brief: (§1)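 Competition binding: T7 phage-tagged kinases incubated with immobilized biotinylated ligand beads and test compound (11-point 3-fold series, 0.9% DMSO final) for 1 h at room temperature. Bound kinase eluted and quantified by qPCR. Kd from Hill equation fit, slope fixed at −1.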

In assay [2] the target is T2, FGFR3 (V555M) (Homo sapiens, UniProt P22607, V555M).
T2 construct: made in house; host or cells: E. coli derived from BL21, infected with T7 phage
As to the kind of experiment: Kinase binding assay (kinase-tagged T7 phage, affinity beads, qPCR readout), FGFR3 (V555M). The method in brief:
as §1
In general terms: In qPCR the cycle at which signal appears reflects the starting amount.

Assay [3] addresses T3, FGFR3 (Homo sapiens, UniProt P22607).
T3 construct: made in house; host or cells: E. coli derived from BL21, infected with T7 phage
As to the kind of experiment: Kinase binding assay (kinase-tagged T7 phage, affinity beads, qPCR readout), FGFR3. The method in brief: as §1

The target in assay [4] is T4, FGFR1 (Homo sapiens, UniProt P11362).
T4 construct: made in house; host or cells: E. coli derived from BL21, infected with T7 phage
As to the kind of experiment: Kinase binding assay (kinase-tagged T7 phage, affinity beads, qPCR readout), FGFR1. A digest of the protocol: as §1

T1 sequence (P21802 22-821): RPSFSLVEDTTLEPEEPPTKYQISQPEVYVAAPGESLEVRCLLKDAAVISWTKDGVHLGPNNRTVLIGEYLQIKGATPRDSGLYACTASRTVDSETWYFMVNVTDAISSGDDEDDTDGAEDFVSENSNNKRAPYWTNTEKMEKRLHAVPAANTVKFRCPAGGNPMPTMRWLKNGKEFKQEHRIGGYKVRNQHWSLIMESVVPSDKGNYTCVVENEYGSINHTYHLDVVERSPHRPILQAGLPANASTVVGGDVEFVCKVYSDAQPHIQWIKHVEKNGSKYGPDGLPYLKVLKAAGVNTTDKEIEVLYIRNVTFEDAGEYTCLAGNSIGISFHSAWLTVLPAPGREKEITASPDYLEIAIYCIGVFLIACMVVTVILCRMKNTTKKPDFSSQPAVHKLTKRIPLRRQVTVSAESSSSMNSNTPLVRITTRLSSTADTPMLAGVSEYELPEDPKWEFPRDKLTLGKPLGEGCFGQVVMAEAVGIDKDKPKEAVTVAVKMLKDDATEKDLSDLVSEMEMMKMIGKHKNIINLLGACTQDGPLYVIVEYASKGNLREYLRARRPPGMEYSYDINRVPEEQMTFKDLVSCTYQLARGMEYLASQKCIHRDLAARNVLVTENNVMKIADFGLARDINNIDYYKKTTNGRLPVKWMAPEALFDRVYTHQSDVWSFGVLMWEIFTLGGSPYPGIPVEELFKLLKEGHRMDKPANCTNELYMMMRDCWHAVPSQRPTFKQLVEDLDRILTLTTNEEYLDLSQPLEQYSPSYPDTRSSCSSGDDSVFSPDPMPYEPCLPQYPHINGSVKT
T3 sequence (P22607 23-806): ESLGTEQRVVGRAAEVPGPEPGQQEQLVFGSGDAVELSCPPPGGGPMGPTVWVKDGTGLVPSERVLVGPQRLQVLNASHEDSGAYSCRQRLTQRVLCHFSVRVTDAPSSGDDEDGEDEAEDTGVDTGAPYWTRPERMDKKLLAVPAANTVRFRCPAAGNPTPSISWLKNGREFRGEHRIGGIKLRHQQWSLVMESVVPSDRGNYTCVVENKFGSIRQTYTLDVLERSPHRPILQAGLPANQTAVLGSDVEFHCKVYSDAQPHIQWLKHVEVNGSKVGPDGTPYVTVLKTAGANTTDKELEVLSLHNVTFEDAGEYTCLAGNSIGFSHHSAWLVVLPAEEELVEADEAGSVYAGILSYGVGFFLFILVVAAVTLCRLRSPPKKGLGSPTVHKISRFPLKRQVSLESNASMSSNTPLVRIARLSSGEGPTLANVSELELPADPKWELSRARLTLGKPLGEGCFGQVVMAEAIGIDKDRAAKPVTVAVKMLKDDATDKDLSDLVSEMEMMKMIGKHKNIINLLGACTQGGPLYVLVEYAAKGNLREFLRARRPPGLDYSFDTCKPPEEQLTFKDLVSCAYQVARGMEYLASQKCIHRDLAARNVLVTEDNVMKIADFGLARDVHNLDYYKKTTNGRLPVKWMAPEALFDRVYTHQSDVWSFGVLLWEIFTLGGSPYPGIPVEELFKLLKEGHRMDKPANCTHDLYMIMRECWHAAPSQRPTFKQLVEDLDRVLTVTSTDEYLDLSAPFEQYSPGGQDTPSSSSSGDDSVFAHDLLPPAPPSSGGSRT
T4 sequence (P11362 22-822): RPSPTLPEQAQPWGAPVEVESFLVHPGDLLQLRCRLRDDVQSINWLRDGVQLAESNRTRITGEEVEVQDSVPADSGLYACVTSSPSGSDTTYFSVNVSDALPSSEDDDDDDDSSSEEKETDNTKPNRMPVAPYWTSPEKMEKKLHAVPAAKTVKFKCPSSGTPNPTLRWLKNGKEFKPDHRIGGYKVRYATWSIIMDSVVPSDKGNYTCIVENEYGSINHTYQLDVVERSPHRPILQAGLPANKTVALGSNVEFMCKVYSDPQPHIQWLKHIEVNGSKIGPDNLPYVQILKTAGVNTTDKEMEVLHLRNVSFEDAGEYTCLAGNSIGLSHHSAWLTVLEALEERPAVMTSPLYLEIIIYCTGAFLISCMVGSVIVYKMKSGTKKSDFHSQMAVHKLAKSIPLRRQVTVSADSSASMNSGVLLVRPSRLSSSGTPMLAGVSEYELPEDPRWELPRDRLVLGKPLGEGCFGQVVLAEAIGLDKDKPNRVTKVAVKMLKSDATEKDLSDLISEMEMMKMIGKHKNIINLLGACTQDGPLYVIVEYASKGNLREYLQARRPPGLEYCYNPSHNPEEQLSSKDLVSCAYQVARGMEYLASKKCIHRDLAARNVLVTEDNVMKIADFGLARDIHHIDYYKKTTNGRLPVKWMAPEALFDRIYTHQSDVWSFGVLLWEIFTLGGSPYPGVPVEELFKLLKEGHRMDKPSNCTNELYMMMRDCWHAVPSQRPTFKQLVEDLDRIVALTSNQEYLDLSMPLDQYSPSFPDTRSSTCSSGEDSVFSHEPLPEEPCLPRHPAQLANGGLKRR
T2 sequence (P22607 23-806 V555M): as the sequence (P22607 23-806) above, with V533M counted along it

Consider `C=CC(=O)Nc1cnc2c(c1)c(C)cn2-c1nc(Nc2ccn(C3COC3)n2)ncc1C` [Example 113, N-[3-methyl-1-[5-methyl-2-[[1-(oxetan-3-yl)pyrazol-3-yl]amino]-pyrimidin-4-yl]pyrrolo[2,3-b]pyridin-5-yl]prop-2-enamide], for which the Kd in assay [1], in assay [2], in assay [3] and in assay [4] was 0.1 to 100 nM throughout.

Consider `C=CC(=O)Nc1cnc2c(c1)c(C)cn2-c1nc(Nc2ccn(CC)n2)ncc1C` [Example 114, N-[1-[2-[(1-ethylpyrazol-3-yl)amino]-5-methyl-pyrimidin-4-yl]-3-methyl-pyrrolo[2,3-b]pyridin-5-yl]prop-2-enamide], for which the Kd in assay [1], in assay [2], in assay [3] and in assay [4] was 0.1 to 100 nM throughout.

For the molecule `CCn1ccc(Nc2ncc(C)c(-n3cc(C)c4cc(NC(=O)/C=C/CN(C)C)cnc43)n2)n1` [Example 115, (E)-4-(dimethylamino)-N-[1-[2-[(1-ethylpyrazol-3-yl)amino]-5-methyl-pyrimidin-4-yl]-3-methyl-pyrrolo[2,3-b]pyridin-5-yl]but-2-enamide], the Kd (usually the free concentration of one partner at which half of the binding sites on the other are occupied at equilibrium, for simple one-to-one binding) in assay [1] fell in the range of 100 to 250 nM; in assay [2] it was 0.1 to 100 nM; in assay [3] it was 0.1 to 100 nM; in assay [4] it was 100 to 250 nM.

Take `C=C(Cl)C(=O)Nc1cnc2c(c1)c(C)cn2-c1nc(Nc2ccn(C)n2)ncc1C` [Example 116, 2-chloro-N-[3-methyl-1-[5-methyl-2-[(1-methylpyrazol-3-yl)amino]pyrimidin-4-yl]pyrrolo[2,3-b]pyridin-5-yl]prop-2-enamide]: the Kd in assay [1] is 0.1 to 100 nM; in assay [2], 0.1 to 100 nM; in assay [3] it was 0.1 to 100 nM; in assay [4] it was 100 to 250 nM.

In the case of `C=C(F)C(=O)Nc1cnc2c(c1)c(C)cn2-c1nc(Nc2ccn(C)n2)ncc1C` [Example 117, 2-fluoro-N-[3-methyl-1-[5-methyl-2-[(1-methylpyrazol-3-yl)amino]pyrimidin-4-yl]pyrrolo[2,3-b]pyridin-5-yl]prop-2-enamide], the Kd in assay [1], in assay [2], in assay [3] and in assay [4] was above 1000 nM throughout.

Regarding `C=C(C)C(=O)Nc1cnc2c(c1)c(C)cn2-c1nc(Nc2ccn(C)n2)ncc1C` [Example 118, 2-methyl-N-[3-methyl-1-[5-methyl-2-[(1-methylpyrazol-3-yl)amino]pyrimidin-4-yl]pyrrolo[2,3-b]pyridin-5-yl]prop-2-enamide], the Kd in assay [1], in assay [2], in assay [3] and in assay [4] was above 1000 nM throughout.

For the molecule `C=CC(=O)Nc1cnc2c(c1)c(C)cn2-c1nc(Nc2ccn(CCO)n2)ncc1C` [Example 119, N-[1-[2-[[1-(2-hydroxyethyl)pyrazol-3-yl]amino]-5-methyl-pyrimidin-4-yl]-3-methyl-pyrrolo[2,3-b]pyridin-5-yl]prop-2-enamide], the Kd in assay [1], in assay [2], in assay [3] and in assay [4] was 0.1 to 100 nM throughout.

With `C#CC(=O)Nc1ccc2c(c1)c(C)cn2-c1nc(Nc2cnn(CCO)c2)ncc1F` [Example 129, N-[1-[5-fluoro-2-[[1-(2-hydroxyethyl)pyrazol-4-yl]amino]pyrimidin-4-yl]-3-methyl-indol-5-yl]prop-2-ynamide], the Kd in assay [1], in assay [2], in assay [3] and in assay [4] was 0.1 to 100 nM throughout.

As to `CC#CC(=O)Nc1ccc2c(c1)c(C)cn2-c1nc(Nc2ccnn2C)ncc1C` [Example 130, N-[3-methyl-1-[5-methyl-2-[(2-methylpyrazol-3-yl)amino]pyrimidin-4-yl]indol-5-yl]but-2-ynamide], the dissociation constant Kd in assay [1] is 250 to 1000 nM; in assay [2] it was 250 to 1000 nM; in assay [3], above 1000 nM; in assay [4], above 1000 nM.

Regarding `CC#CC(=O)Nc1cnc2c(c1)c(C)cn2-c1nc(Nc2ccnn2C)ncc1C` [Example 131, N-[3-methyl-1-[5-methyl-2-[(2-methylpyrazol-3-yl)amino]pyrimidin-4-yl]pyrrolo[2,3-b]pyridin-5-yl]but-2-ynamide], the Kd in assay [1], in assay [2], in assay [3] and in assay [4] was above 1000 nM in each case.

For `C#CC(=O)Nc1cnc2c(c1)c(C)cn2-c1nc(Nc2ccnn2C)ncc1C` [Example 132, N-[3-methyl-1-[5-methyl-2-[(2-methylpyrazol-3-yl)amino]pyrimidin-4-yl]pyrrolo[2,3-b]pyridin-5-yl]prop-2-ynamide], the Kd in assay [1], in assay [2], in assay [3] and in assay [4] was 0.1 to 100 nM throughout.

Consider `C#CC(=O)Nc1cnc2c(c1)c(C)cn2-c1nc(Nc2cnn(CCO)c2)ncc1F` [Example 133, N-[1-[5-fluoro-2-[[1-(2-hydroxyethyl)pyrazol-4-yl]amino]pyrimidin-4-yl]-3-methyl-pyrrolo[2,3-b]pyridin-5-yl]prop-2-ynamide], for which the Kd in assay [1], in assay [2], in assay [3] and in assay [4] was 0.1 to 100 nM in each case.

On to `CC#CC(=O)Nc1cnc2c(c1)c(C)cn2-c1nc(Nc2ccnn2C)ncc1F` [Example 134, N-[1-[5-fluoro-2-[(2-methylpyrazol-3-yl)amino]pyrimidin-4-yl]-3-methyl-pyrrolo[2,3-b]pyridin-5-yl]but-2-ynamide], for which the Kd in assay [1], in assay [2], in assay [3] and in assay [4] was above 1000 nM each time.

For the molecule `CC#CC(=O)Nc1ccc2c(-c3nc(Nc4cnn(CCO)c4)ncc3Cl)cn(C)c2c1` [Example 135, N-[3-[5-chloro-2-[[1-(2-hydroxyethyl)pyrazol-4-yl]amino]pyrimidin-4-yl]-1-methyl-indol-6-yl]but-2-ynamide], the Kd in assay [1] lay in the range of 0.1 to 100 nM; in assay [2], 0.1 to 100 nM; in assay [3], 100 to 250 nM; in assay [4], 250 to 1000 nM.

For `C=CC(=O)Nc1ccc2c(c1)c(C)cn2-c1ccnc(Nc2cnn(CCO)c2)n1` [Example 137, N-[1-[2-[[1-(2-hydroxyethyl)pyrazol-4-yl]amino]pyrimidin-4-yl]-3-methyl-indol-5-yl]prop-2-enamide], the Kd in assay [1], in assay [2], in assay [3] and in assay [4] was 0.1 to 100 nM throughout.

As for `C#CC(=O)Nc1ccc2c(c1)c(C)cn2-c1nc(Nc2ccnn2C)ncc1F` [Example 138, N-[1-[5-fluoro-2-[(2-methylpyrazol-3-yl)amino]pyrimidin-4-yl]-3-methyl-indol-5-yl]prop-2-ynamide], the Kd in assay [1] is 0.1 to 100 nM; in assay [2], 0.1 to 100 nM; in assay [3], 0.1 to 100 nM; in assay [4] it was 100 to 250 nM.

As to `CC#CC(=O)Nc1ccc2c(c1)c(C)cn2-c1nc(Nc2ccnn2C)ncc1F` [Example 139, N-[1-[5-fluoro-2-[(2-methylpyrazol-3-yl)amino]pyrimidin-4-yl]-3-methyl-indol-5-yl]but-2-ynamide], the Kd in assay [1], in assay [2], in assay [3] and in assay [4] was above 1000 nM in each case.

For the molecule `CC#CC(=O)Nc1ccc2c(c1)c(C)cn2-c1nc(Nc2cnn(CCO)c2)ncc1C` [Example 140, N-[1-[2-[[1-(2-hydroxyethyl)pyrazol-4-yl]amino]-5-methyl-pyrimidin-4-yl]-3-methyl-indol-5-yl]but-2-ynamide], the Kd in assay [1] fell in the range of 0.1 to 100 nM; in assay [2] it was 0.1 to 100 nM; in assay [3], 0.1 to 100 nM; in assay [4] it was 100 to 250 nM.

For the molecule `C#CC(=O)Nc1cnc2c(c1)c(C)cn2-c1nc(Nc2cnn(CCO)c2)ncc1C` [Example 141, N-[1-[2-[[1-(2-hydroxyethyl)pyrazol-4-yl]amino]-5-methyl-pyrimidin-4-yl]-3-methyl-pyrrolo[2,3-b]pyridin-5-yl]prop-2-ynamide], the Kd in assay [1], in assay [2], in assay [3] and in assay [4] was 0.1 to 100 nM each time.

`C#CC(=O)Nc1ccc2c(-c3nc(Nc4cnn(CCO)c4)ncc3F)cn(C)c2c1` [Example 142, N-[3-[5-fluoro-2-[[1-(2-hydroxyethyl)pyrazol-4-yl]amino]pyrimidin-4-yl]-1-methyl-indol-6-yl]prop-2-ynamide]: the Kd in assay [1], in assay [2], in assay [3] and in assay [4] was 0.1 to 100 nM in each case.

In the case of `C#CC(=O)Nc1ccc2c(-c3ccnc(Nc4cnn(CCO)c4)n3)cn(C)c2c1` [Example 143, N-[3-[2-[[1-(2-hydroxyethyl)pyrazol-4-yl]amino]pyrimidin-4-yl]-1-methyl-indol-6-yl]prop-2-ynamide], the Kd in assay [1], in assay [2], in assay [3] and in assay [4] was 0.1 to 100 nM throughout.

As to `CC#CC(=O)Nc1ccc2c(-c3ccnc(Nc4cnn(CCO)c4)n3)cn(C)c2c1` [Example 145, N-[3-[2-[[1-(2-hydroxyethyl)pyrazol-4-yl]amino]pyrimidin-4-yl]-1-methyl-indol-6-yl]but-2-ynamide], the Kd in assay [1] was 250 to 1000 nM; in assay [2] it was 250 to 1000 nM; in assay [3], 250 to 1000 nM; in assay [4], above 1000 nM.

Turning to `C=CC(=O)N(C)c1ccc2c(c1)c(C)cn2-c1nc(Nc2ccnn2C)ncc1C` [Example 151, N-methyl-N-[3-methyl-1-[5-methyl-2-[(2-methylpyrazol-3-yl)amino]pyrimidin-4-yl]indol-5-yl]prop-2-enamide], the Kd in assay [1], in assay [2], in assay [3] and in assay [4] was above 1000 nM each time.

The values above are taken from patent publication US20240190849A1, “AMINOPYRIMIDINE COMPOUNDS AND METHODS OF THEIR USE” (TYRA BIOSCIENCES, INC., priority 2021, published 2024).
